Experimental data reported in ChEMBL document CHEMBL3098094, “Synthesis and biological evaluation of novel N-substituted 1H-dibenzo[a,c]carbazole derivatives of dehydroabietic acid as potential antimicrobial agents” (2014).
Values after ≈ are worked out from the molar mass of the structure shown.

Tests used:
Format in all cases: functional
Escherichia coli = assay: Antimicrobial activity against Escherichia coli CGMCC1.1571 after 24 hrs by twofold serial microdilution method; settings: CGMCC1.1571, 24 h
Aspergillus niger = assay: Antimicrobial activity against Aspergillus niger CGMCC3.316 after 48 hrs by twofold serial microdilution method; settings: CGMCC3.316, 48 h
Candida tropicalis = assay: Antimicrobial activity against Candida tropicalis CGMCC2.3967 after 48 hrs by twofold serial microdilution method; settings: CGMCC2.3967, 48 h
Pseudomonas fluorescens = assay: Antimicrobial activity against Pseudomonas fluorescens CGMCC1.1828 after 24 hrs by twofold serial microdilution method; settings: CGMCC1.1828, 24 h
Candida albicans = assay: Antimicrobial activity against Candida albicans CGMCC2.2086 after 48 hrs by twofold serial microdilution method; settings: CGMCC2.2086, 48 h
Bacillus subtilis = assay: Antimicrobial activity against Bacillus subtilis CGMCC1.1162 after 24 hrs by twofold serial microdilution method; settings: CGMCC1.1162, 24 h
Staphylococcus aureus = assay: Antimicrobial activity against Staphylococcus aureus CGMCC1.1361 after 24 hrs by twofold serial microdilution method; settings: CGMCC1.1361, 24 h

MIC (Escherichia coli)	MIC (Aspergillus niger)	MIC (Candida tropicalis)	MIC (Pseudomonas fluorescens)	MIC (Candida albicans)	MIC (Bacillus subtilis)	MIC (Staphylococcus aureus)	Compound
62.5 µg/mL (≈ 126 µM)	> 100 µg/mL	> 100 µg/mL	> 100 µg/mL	62.5 µg/mL (≈ 126 µM)	31.2 µg/mL (≈ 62.9 µM)	15.6 µg/mL (≈ 31.5 µM)	COC(=O)[C@]1(C)CCC[C@]2(C)c3ccc(C(C)C)cc3-c3c(c4ccccc4n3CCn3ccnc3)[C@@H]12
31.2 µg/mL (≈ 55.2 µM)	> 100 µg/mL	62.5 µg/mL (≈ 110 µM)	15.6 µg/mL (≈ 27.6 µM)	31.2 µg/mL (≈ 55.2 µM)	15.6 µg/mL (≈ 27.6 µM)	7.8 µg/mL (≈ 13.8 µM)	COC(=O)[C@]1(C)CCC[C@]2(C)c3ccc(C(C)C)cc3-c3c(c4ccccc4n3CCNc3ccc([N+](=O)[O-])cc3)[C@@H]12
7.8 µg/mL (≈ 14.1 µM)	> 100 µg/mL	31.2 µg/mL (≈ 56.2 µM)	7.8 µg/mL (≈ 14.1 µM)	31.2 µg/mL (≈ 56.2 µM)	0.9 µg/mL (≈ 1.62 µM)	1.9 µg/mL (≈ 3.43 µM)	COC(=O)[C@]1(C)CCC[C@]2(C)c3ccc(C(C)C)cc3-c3c(c4ccccc4n3CCn3c([N+](=O)[O-])cnc3C)[C@@H]12
31.2 µg/mL (≈ 59 µM)	> 100 µg/mL	62.5 µg/mL (≈ 118 µM)	31.2 µg/mL (≈ 59 µM)	31.2 µg/mL (≈ 59 µM)	15.6 µg/mL (≈ 29.5 µM)	31.2 µg/mL (≈ 59 µM)	CCCN(CCC)CCn1c2c(c3ccccc31)[C@H]1[C@](C)(C(=O)OC)CCC[C@]1(C)c1ccc(C(C)C)cc1-2
15.6 µg/mL (≈ 31.4 µM)	> 100 µg/mL	> 100 µg/mL	31.2 µg/mL (≈ 62.8 µM)	> 100 µg/mL	7.8 µg/mL (≈ 15.7 µM)	31.2 µg/mL (≈ 62.8 µM)	COC(=O)[C@]1(C)CCC[C@]2(C)c3ccc(C(C)C)cc3-c3c(c4ccccc4n3CCn3ccnn3)[C@@H]12
31.2 µg/mL (≈ 56 µM)	62.5 µg/mL (≈ 112 µM)	31.2 µg/mL (≈ 56 µM)	15.6 µg/mL (≈ 28 µM)	31.2 µg/mL (≈ 56 µM)	15.6 µg/mL (≈ 28 µM)	15.6 µg/mL (≈ 28 µM)	CCCCN(CCCC)CCn1c2c(c3ccccc31)[C@H]1[C@](C)(C(=O)OC)CCC[C@]1(C)c1ccc(C(C)C)cc1-2
> 100 µg/mL	> 100 µg/mL	> 100 µg/mL	62.5 µg/mL (≈ 113 µM)	62.5 µg/mL (≈ 113 µM)	31.2 µg/mL (≈ 56.2 µM)	31.2 µg/mL (≈ 56.2 µM)	COC(=O)[C@]1(C)CCC[C@]2(C)c3ccc(C(C)C)cc3-c3c(c4ccccc4n3CCNc3ccc(Cl)cc3)[C@@H]12
> 100 µg/mL	> 100 µg/mL	62.5 µg/mL (≈ 122 µM)	62.5 µg/mL (≈ 122 µM)	> 100 µg/mL	15.6 µg/mL (≈ 30.4 µM)	62.5 µg/mL (≈ 122 µM)	COC(=O)[C@]1(C)CCC[C@]2(C)c3ccc(C(C)C)cc3-c3c(c4ccccc4n3CCN3CCCCC3)[C@@H]12
> 100 µg/mL	> 100 µg/mL	> 100 µg/mL	> 100 µg/mL	> 100 µg/mL	62.5 µg/mL (≈ 117 µM)	> 100 µg/mL	COC(=O)[C@]1(C)CCC[C@]2(C)c3ccc(C(C)C)cc3-c3c(c4ccccc4n3CCNc3ccc(C)cc3)[C@@H]12
31.2 µg/mL (≈ 57.2 µM)	> 100 µg/mL	62.5 µg/mL (≈ 115 µM)	31.2 µg/mL (≈ 57.2 µM)	31.2 µg/mL (≈ 57.2 µM)	31.2 µg/mL (≈ 57.2 µM)	31.2 µg/mL (≈ 57.2 µM)	COC(=O)[C@]1(C)CCC[C@]2(C)c3ccc(C(C)C)cc3-c3c(c4ccccc4n3CCn3cnc4ccccc43)[C@@H]12
31.2 µg/mL (≈ 60.6 µM)	62.5 µg/mL (≈ 121 µM)	31.2 µg/mL (≈ 60.6 µM)	31.2 µg/mL (≈ 60.6 µM)	62.5 µg/mL (≈ 121 µM)	15.6 µg/mL (≈ 30.3 µM)	7.8 µg/mL (≈ 15.2 µM)	COC(=O)[C@]1(C)CCC[C@]2(C)c3ccc(C(C)C)cc3-c3c(c4ccccc4n3CCN3CCOCC3)[C@@H]12
62.5 µg/mL (≈ 117 µM)	> 100 µg/mL	31.2 µg/mL (≈ 58.6 µM)	62.5 µg/mL (≈ 117 µM)	62.5 µg/mL (≈ 117 µM)	62.5 µg/mL (≈ 117 µM)	> 100 µg/mL	COC(=O)[C@]1(C)CCC[C@]2(C)c3ccc(C(C)C)cc3-c3c(c4ccccc4n3CCN(CCO)CCO)[C@@H]12
62.5 µg/mL (≈ 126 µM)	> 100 µg/mL	> 100 µg/mL	62.5 µg/mL (≈ 126 µM)	> 100 µg/mL	31.2 µg/mL (≈ 62.7 µM)	31.2 µg/mL (≈ 62.7 µM)	COC(=O)[C@]1(C)CCC[C@]2(C)c3ccc(C(C)C)cc3-c3c(c4ccccc4n3CCn3ncnn3)[C@@H]12
> 100 µg/mL	> 100 µg/mL	> 100 µg/mL	> 100 µg/mL	> 100 µg/mL	31.2 µg/mL (≈ 52 µM)	62.5 µg/mL (≈ 104 µM)	COC(=O)[C@]1(C)CCC[C@]2(C)c3ccc(C(C)C)cc3-c3c(c4ccccc4n3CCNc3ccc(Br)cc3)[C@@H]12
> 100 µg/mL	> 100 µg/mL	> 100 µg/mL	> 100 µg/mL	> 100 µg/mL	31.2 µg/mL (≈ 62.6 µM)	62.5 µg/mL (≈ 125 µM)	COC(=O)[C@]1(C)CCC[C@]2(C)c3ccc(C(C)C)cc3-c3c(c4ccccc4n3CCN3CCCC3)[C@@H]12
> 100 µg/mL	> 100 µg/mL	> 100 µg/mL	62.5 µg/mL (≈ 125 µM)	62.5 µg/mL (≈ 125 µM)	31.2 µg/mL (≈ 62.3 µM)	62.5 µg/mL (≈ 125 µM)	CCN(CC)CCn1c2c(c3ccccc31)[C@H]1[C@](C)(C(=O)OC)CCC[C@]1(C)c1ccc(C(C)C)cc1-2
15.6 µg/mL (≈ 30.4 µM)	62.5 µg/mL (≈ 122 µM)	31.2 µg/mL (≈ 60.7 µM)	15.6 µg/mL (≈ 30.4 µM)	31.2 µg/mL (≈ 60.7 µM)	7.8 µg/mL (≈ 15.2 µM)	15.6 µg/mL (≈ 30.4 µM)	COC(=O)[C@]1(C)CCC[C@]2(C)c3ccc(C(C)C)cc3-c3c(c4ccccc4n3CCN3CCNCC3)[C@@H]12
> 100 µg/mL	> 100 µg/mL	> 100 µg/mL	> 100 µg/mL	> 100 µg/mL	> 100 µg/mL	62.5 µg/mL (≈ 113 µM)	COC(=O)[C@]1(C)CCC[C@]2(C)c3ccc(C(C)C)cc3-c3c(c4ccccc4n3CCNc3ccc(OC)cc3)[C@@H]12
15.6 µg/mL (≈ 29.6 µM)	7.8 µg/mL (≈ 14.8 µM)	7.8 µg/mL (≈ 14.8 µM)	7.8 µg/mL (≈ 14.8 µM)	7.8 µg/mL (≈ 14.8 µM)	3.9 µg/mL (≈ 7.39 µM)	1.9 µg/mL (≈ 3.6 µM)	COC(=O)[C@]1(C)CCC[C@]2(C)c3ccc(C(C)C)cc3-c3c(c4ccccc4n3CCN3CCN(C)CC3)[C@@H]12
31.2 µg/mL (≈ 62.7 µM)	> 100 µg/mL	62.5 µg/mL (≈ 126 µM)	15.6 µg/mL (≈ 31.3 µM)	31.2 µg/mL (≈ 62.7 µM)	7.8 µg/mL (≈ 15.7 µM)	31.2 µg/mL (≈ 62.7 µM)	COC(=O)[C@]1(C)CCC[C@]2(C)c3ccc(C(C)C)cc3-c3c(c4ccccc4n3CCn3cnnn3)[C@@H]12

Compound	MIC (Escherichia coli)	MIC (Aspergillus niger)	MIC (Candida tropicalis)	MIC (Pseudomonas fluorescens)	MIC (Candida albicans)	MIC (Bacillus subtilis)	MIC (Staphylococcus aureus)
COC(=O)[C@]1(C)CCC[C@]2(C)c3ccc(C(C)C)cc3-c3c(c4ccccc4n3CCBr)[C@@H]12	> 100 µg/mL	> 100 µg/mL	> 100 µg/mL	> 100 µg/mL	> 100 µg/mL	31.2 µg/mL (≈ 61.4 µM)	62.5 µg/mL (≈ 123 µM)
COC(=O)[C@]1(C)CCC[C@]2(C)c3ccc(C(C)C)cc3C(=O)C[C@@H]12	> 100 µg/mL	> 100 µg/mL	> 100 µg/mL	62.5 µg/mL (≈ 190 µM)	> 100 µg/mL	31.2 µg/mL (≈ 95 µM)	31.2 µg/mL (≈ 95 µM)
COC(=O)[C@]1(C)CCC[C@]2(C)c3ccc(C(C)C)cc3-c3[nH]c4ccccc4c3[C@@H]12	> 100 µg/mL	> 100 µg/mL	> 100 µg/mL	62.5 µg/mL (≈ 156 µM)	> 100 µg/mL	31.2 µg/mL (≈ 77.7 µM)	62.5 µg/mL (≈ 156 µM)
COC(=O)[C@]1(C)CCC[C@]2(C)c3ccc(C(C)C)cc3-c3c(c4ccccc4n3CCN(C)C)[C@@H]12	> 100 µg/mL	> 100 µg/mL	> 100 µg/mL	62.5 µg/mL (≈ 132 µM)	> 100 µg/mL	62.5 µg/mL (≈ 132 µM)	> 100 µg/mL
CC(=O)N1CCN(c2ccc(OCC3COC(Cn4ccnc4)(c4ccc(Cl)cc4Cl)O3)cc2)CC1 (racemic) [KETOCONAZOLE]		7.8 µg/mL (≈ 14.7 µM)	3.9 µg/mL (≈ 7.34 µM)		3.9 µg/mL (≈ 7.34 µM)		
NCC[C@H](O)C(=O)N[C@@H]1C[C@H](N)[C@@H](O[C@H]2O[C@H](CN)[C@@H](O)[C@H](O)[C@H]2O)[C@H](O)[C@H]1O[C@H]1O[C@H](CO)[C@@H](O)[C@H](N)[C@H]1O.O=S(=O)(O)O	1.9 µg/mL			0.9 µg/mL		0.9 µg/mL	0.9 µg/mL
